From patent US9006450B2 (Boehringer Ingelheim International GmbH, priority 2010, dated 2015)

target: T1, human ACC2 (Homo sapiens, UniProt O00763); assay: ACC2 assay, spectrophotometric 384 well assay (NADH-linked, coupled lactate dehydrogenase/pyruvate kinase); format: biochemical; conditions: ACC2 assay, hACC2 construct lacking 128 N-terminal amino acids, 25° C., 340 nm; read-out: IC50
T1 construct: made in house; host or cells: insect cells (baculoviral expression system)
How it was run: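 Human ACC2 lacking N-terminal 128 aa, baculovirus/insect-cell expressed, anion-exchange purified; 100 mM Tris pH 7.5, 10 mM citrate, 25 mM KHCO3, 1% DMSO. Started with 200 μM NADH and acetyl-CoA plus 500 μM ATP; PK/LDH-coupled A340 decrease read 15 min at 25° C. IC50 by nonlinear fit of low-control-subtracted slopes.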

T1 sequence (O00763 129-2458 limits assumed): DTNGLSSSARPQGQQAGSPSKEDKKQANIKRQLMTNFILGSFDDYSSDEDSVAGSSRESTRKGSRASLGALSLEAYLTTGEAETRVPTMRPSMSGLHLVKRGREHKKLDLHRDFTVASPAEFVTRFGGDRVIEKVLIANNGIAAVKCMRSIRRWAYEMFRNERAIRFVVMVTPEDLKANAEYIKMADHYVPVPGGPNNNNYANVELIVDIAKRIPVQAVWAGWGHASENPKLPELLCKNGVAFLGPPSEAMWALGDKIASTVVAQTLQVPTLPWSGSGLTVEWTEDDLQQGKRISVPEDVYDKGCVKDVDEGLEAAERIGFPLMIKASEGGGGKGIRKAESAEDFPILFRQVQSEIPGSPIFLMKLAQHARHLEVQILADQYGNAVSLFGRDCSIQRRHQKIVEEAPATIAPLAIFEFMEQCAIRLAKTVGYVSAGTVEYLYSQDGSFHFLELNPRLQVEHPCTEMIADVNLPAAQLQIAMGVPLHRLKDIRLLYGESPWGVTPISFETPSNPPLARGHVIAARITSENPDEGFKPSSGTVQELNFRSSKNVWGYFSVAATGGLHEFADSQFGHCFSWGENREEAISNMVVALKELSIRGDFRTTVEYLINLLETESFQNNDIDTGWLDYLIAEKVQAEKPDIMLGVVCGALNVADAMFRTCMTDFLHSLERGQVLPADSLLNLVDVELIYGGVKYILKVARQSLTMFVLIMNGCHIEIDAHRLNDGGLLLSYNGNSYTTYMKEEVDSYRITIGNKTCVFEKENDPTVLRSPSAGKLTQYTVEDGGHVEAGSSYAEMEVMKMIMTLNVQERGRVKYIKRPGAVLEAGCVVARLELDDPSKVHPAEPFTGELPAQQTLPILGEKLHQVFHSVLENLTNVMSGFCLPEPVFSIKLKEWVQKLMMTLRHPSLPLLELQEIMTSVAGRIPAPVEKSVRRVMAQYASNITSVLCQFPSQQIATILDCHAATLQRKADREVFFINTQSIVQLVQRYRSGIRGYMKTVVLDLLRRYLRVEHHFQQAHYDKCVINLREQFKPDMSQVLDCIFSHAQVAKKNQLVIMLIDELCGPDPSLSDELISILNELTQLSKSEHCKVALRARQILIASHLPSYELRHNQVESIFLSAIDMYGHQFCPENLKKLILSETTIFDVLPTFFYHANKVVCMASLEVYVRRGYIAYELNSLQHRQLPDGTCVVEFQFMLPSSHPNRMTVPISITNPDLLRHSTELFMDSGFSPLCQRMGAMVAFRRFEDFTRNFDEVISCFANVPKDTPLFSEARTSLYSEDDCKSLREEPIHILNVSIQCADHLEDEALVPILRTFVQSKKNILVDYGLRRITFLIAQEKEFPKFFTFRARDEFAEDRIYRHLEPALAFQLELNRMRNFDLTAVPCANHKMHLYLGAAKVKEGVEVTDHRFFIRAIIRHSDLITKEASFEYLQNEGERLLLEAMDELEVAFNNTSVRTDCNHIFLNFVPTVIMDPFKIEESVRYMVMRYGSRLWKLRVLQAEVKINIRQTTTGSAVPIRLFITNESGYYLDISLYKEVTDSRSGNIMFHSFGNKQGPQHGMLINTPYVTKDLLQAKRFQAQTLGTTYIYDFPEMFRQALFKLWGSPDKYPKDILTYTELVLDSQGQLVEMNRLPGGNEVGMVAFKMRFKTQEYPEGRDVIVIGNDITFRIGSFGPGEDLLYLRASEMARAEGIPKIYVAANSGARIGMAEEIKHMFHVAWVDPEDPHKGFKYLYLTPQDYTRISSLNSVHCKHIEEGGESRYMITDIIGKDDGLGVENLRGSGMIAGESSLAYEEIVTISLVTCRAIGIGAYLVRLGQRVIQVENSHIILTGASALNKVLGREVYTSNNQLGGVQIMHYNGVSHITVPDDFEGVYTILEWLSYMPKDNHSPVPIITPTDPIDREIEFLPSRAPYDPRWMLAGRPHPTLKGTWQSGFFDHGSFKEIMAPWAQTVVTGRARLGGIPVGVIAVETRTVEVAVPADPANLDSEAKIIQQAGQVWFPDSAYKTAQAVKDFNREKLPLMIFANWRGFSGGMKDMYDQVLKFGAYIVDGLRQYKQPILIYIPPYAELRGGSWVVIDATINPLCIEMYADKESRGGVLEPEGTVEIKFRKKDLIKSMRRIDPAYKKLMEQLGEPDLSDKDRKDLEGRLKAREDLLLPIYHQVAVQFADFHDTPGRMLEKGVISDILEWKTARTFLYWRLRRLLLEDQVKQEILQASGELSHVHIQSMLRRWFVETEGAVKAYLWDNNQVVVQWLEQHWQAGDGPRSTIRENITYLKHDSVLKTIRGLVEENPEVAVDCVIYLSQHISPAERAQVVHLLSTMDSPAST

SMILES | IC50 [nM]
CC(=O)N[C@@H](C)c1ccc(C2CCN(c3ccc(OC4CCC4)cc3C#N)CC2)cc1 [Example 1.51] | 90
CC(=O)N[C@@H](C)c1ccc(C2CCN(c3nc(C)c4ccccc4n3)CC2)cc1 [Example 4.23] | 720
CCOc1ccc(N2CCC(c3ccc([C@H](C)NC(C)=O)cc3)CC2)cn1 [Example 1.4] | 320
CC(=O)N[C@@H](C)c1ccc(C2CCN(c3ccnc(OC4CCCCC4)c3)CC2)cc1 [Example 19.6] | 80
CC(=O)N[C@@H](C)c1ccc(C2CCN(c3ccnc(NC(C)C)n3)CC2)cc1 [Example 11.43] | 3300
CC(=O)N[C@@H](C)c1ccc(C2CCN(c3ncc(-c4cc5ccccc5[nH]4)cn3)CC2)cc1 [Example 10.119] | 310
CC(=O)N[C@@H](C)c1ccc(C2CCN(c3ncnc4ccccc34)CC2)cc1 [Example 4.7] | 950
C[C@H](NC(=O)C1CC1)c1ccc(C2CCN(c3ccc(OCC4CC4)cc3F)CC2)cc1 [Example 1.79] | 180
CC(=O)N[C@@H](C)c1ccc(C2CCN(c3ncc(C(=O)N4CCCCC4)cn3)CC2)cc1 [Example 18.11] | 740
CC(=O)N[C@@H](C)c1ccc(C2CCN(c3ccc4c(Cl)cccc4n3)CC2)cc1 [Example 5.32] | 3800
COc1cc(N2CCC(c3ccc([C@H](C)NC(C)=O)cc3)CC2)ccc1OCC(C)C [Example 8.29] | 890
CC(=O)N[C@@H](C)c1ccc(C2CCN(c3ncc(-c4cccc(C#N)c4)cn3)CC2)cc1 [Example 10.80] | 140
CC(=O)N[C@@H](C)c1ccc(C2CCN(c3cc(N(C)C4CCCC4)ncn3)CC2)cc1 [Example 11.97] | 330
CC(=O)N[C@@H](C)c1ccc(C2CCN(c3ccc(OCC4(CC#N)CC4)cc3)CC2)cc1 [Example 27.3] | 860
CC(=O)N[C@@H](C)c1ccc(C2CCN(c3ncc(-c4ccccc4C#N)cn3)CC2)cc1 [Example 10.55] | 640
CC(=O)N[C@@H](C)c1ccc(C2CCN(c3ncc(-c4cnc5ccccc5c4)cn3)CC2)cc1 [Example 10.21] | 70
CCC(NC(C)=O)c1ccc(C2CCN(c3ccc(OCC4CC4)cc3F)CC2)cc1 (stereo not drawn) [Example 1.202] | 1900
CC(=O)N[C@@H](C)c1ccc(C2CCN(c3cc(C)c4ccccc4n3)CC2)cc1 [Example 4.4] | 1800
CC(=O)N[C@@H](C)c1ccc(C2CCN(c3ccc(OCCC(F)(F)F)cc3)CC2)cc1 [Example 1.165] | 100
COCCNc1nccc(N2CCC(c3ccc([C@H](C)NC(C)=O)cc3)CC2)n1 [Example 11.64] | 17900
CCOc1ccc(N2CCC(c3ccc([C@H](C)NC(C)=O)cc3)CC2)nc1 [Example 5.1, (S)—N-{1-[4-(5′-Ethoxy-3,4,5,6-tetrahydro-2H-[1,2′]bipyridinyl-4-yl)-phenyl]-ethyl}-acetamide] | 200

SMILES | IC50 [nM]
C[C@H](NC(=O)N(C)C)c1ccc(C2CCN(c3ncc4nc(-c5ccsc5)oc4n3)CC2)cc1 [Example 4.302] | 200
CC(C)COc1ccc(N2CCC(c3ccc([C@H](C)NC(=O)C4CC4)cc3)CC2)cc1 [Example 1.114] | 130
COC1CN(c2nccc(N3CCC(c4ccc([C@H](C)NC(C)=O)cc4)CC3)n2)C1 [Example 11.80] | 2300
CC(=O)N[C@@H](C)c1ccc(C2CCN(c3ccc(OC4CC4)cc3OC3CC3)CC2)cc1 [Example 1.94] | 210
CCOc1ccc(N2CCC(c3ccc([C@H](C)NC(N)=O)cc3)CC2)cc1 [Example 14.5] | 1700
CC(=O)N[C@@H](C)c1ccc(C2CCN(c3ncc(-c4ccc(C)c(Cl)c4)cn3)CC2)cc1 [Example 10.67] | 90
CCOc1ccc(N2CCC(c3ccc([C@H](C)NC(=O)Cc4ccccc4)cc3)CC2)cc1 [Example 6.21] | 1600
CC(=O)N[C@@H](C)c1ccc(C2CCN(c3cc(NCC4CCC4)ncn3)CC2)cc1 [Example 11.95] | 2000
C[C@H](NC(=O)C1CC1)c1ccc(C2CCN(c3ccc(OC4CC4)cc3)CC2)cc1 [Example 1.14] | 100
CC(=O)N[C@@H](C)c1ccc(C2CCN(c3ccc(OCC4CC4C)cc3)CC2)cc1 (stereo partly drawn) [Example 27.1, N-((1S)-1-(4-(1-(4-((2-methylcyclopropyl)methoxy)phenyl)-piperidin-4-yl)phenyl)-ethyl)acetamide] | 150
CC(=O)N[C@@H](C)c1ccc(C2CCN(c3ncc(-c4cccn4C)cn3)CC2)cc1 [Example 10.72] | 1200
CCC(NC(C)=O)c1ccc(C2CCN(c3ccc(OCC(C)C)cc3)CC2)cc1 (stereo not drawn) [Example 15.21] | 1200
CCNC(=O)c1cccc(N2CCC(c3ccc([C@H](C)NC(C)=O)cc3)CC2)c1 [Example 29.3] | 6700
CCCNc1nccc(N2CCC(c3ccc([C@H](C)NC(C)=O)cc3)CC2)n1 [Example 11.41] | 3100
CC(=O)N[C@@H](C)c1ccc(C2CCN(c3nc(-c4ccccc4)no3)CC2)cc1 [Example 25.3] | 950
Cc1cc(OC2CC2)ccc1N1CCC(c2ccc([C@H](C)NC(=O)C3CC3)cc2)CC1 [Example 1.91] | 600
CCC(C)Oc1ccc(N2CCC(c3ccc([C@H](C)NC(=O)N(C)C)cc3)CC2)cc1 (stereo partly drawn) [Example 1.7] | 140
CCOc1ccc(N2CCC(c3ccc(C(CC)NC(C)=O)cc3)CC2)cc1 (stereo not drawn) [Example 1.206] | 4700
CC(=O)N[C@@H](C)c1ccc(C2CCN(c3ccc(OCCOC4CC4)cc3)CC2)cc1 [Example 9.31] | 4800
CCCOc1ccc(N2CCC(c3ccc(C(CC)NC(C)=O)cc3)CC2)cc1 (stereo not drawn) [Example 1.200] | 450
CCNc1ccc(N2CCC(c3ccc([C@H](C)NC(C)=O)cc3)CC2)cc1 [Example 24.2] | 1900

The remaining compounds from weak to strong by IC50, led by results:

IC50 [nM] | SMILES
29100 | CC(=O)N[C@@H](C)c1ccc(C2CCN(c3ncc(C(=O)NCCCO)cn3)CC2)cc1 [Example 18.47]
14600 | COCCOc1ccc(N2CCC(c3ccc([C@H](C)NC(C)=O)cc3)CC2)cc1OC [Example 8.22]
13600 | CC(=O)N[C@@H](C)c1ccc(C2CCN(c3ncc(C(=O)N4CCN(C)CC4)cn3)CC2)cc1 [Example 18.52]
10300 | CCc1noc(N2CCC(c3ccc([C@H](C)NC(C)=O)cc3)CC2)n1 [Example 25.2]
9800 | CC(=O)N[C@@H](C)c1ccc(C2CCN(c3ncc(C(=O)N(C)Cc4ccncc4)cn3)CC2)cc1 [Example 18.1, (S)-2-{4-[4-(1-Acetylamino-ethyl)-phenyl]-piperidin-1-yl}-pyrimidine-5-carboxylic acid methyl-pyridin-4-ylmethyl-amide]
7700 | COC(=O)c1cnc(N2CCC(c3ccc([C@H](C)NC(C)=O)cc3)CC2)cn1 [Example 5.53]
7000 | COc1ccc(N2CCC(c3ccc([C@H](C)NC(C)=O)cc3)CC2)cc1C#N [Example 8.45]
3900 | CCOc1ccc(N2CCC(c3ccc([C@H](C)NC(=O)c4cnc[nH]4)cc3)CC2)cc1 [Example 6.24]
3800 | CCOc1ccc(N2CCC(c3ccc([C@H](C)NC(=O)N(C)Cc4ccn(C)n4)cc3)CC2)cc1 [Example 14.64]
2900 | C[C@H](NC(=O)C1CC1)c1ccc(C2CCN(c3ncnc(Cl)c3F)CC2)cc1 [Example 5.37]
2800 | CCOc1ccc(N2CCC(c3ccc([C@H](C)NC(=O)c4cncnc4)cc3)CC2)cc1 [Example 6.42]
2300 | CC(=O)N[C@@H](C)c1ccc(C2CCN(c3ncc(-c4cccnc4C)cn3)CC2)cc1 [Example 10.94]
1700 | CCOc1ccc(N2CCC(c3ccc([C@H](C)NC(=O)Nc4cccnc4)cc3)CC2)cc1 [Example 14.55]
1400 | CC(=O)N[C@@H](C)c1ccc(C2CCN(c3cccc(OC4CCCOC4)c3)CC2)cc1 (stereo partly drawn) [Example 9.3]
990 | COc1ccc2nc(N3CCC(c4ccc([C@H](C)NC(C)=O)cc4)CC3)ccc2c1 [Example 5.24]
970 | CC(=O)N[C@@H](C)c1ccc(C2CCN(c3nc(Cl)cc4ccccc34)CC2)cc1 [Example 4.8]
660 | CCC(NC(C)=O)c1ccc(C2CCN(c3ccc(OCC4CC4(F)F)cc3)CC2)cc1 (stereo not drawn) [Example 1.205]
610 | CCCN(C)c1cc(N2CCC(c3ccc([C@H](C)NC(C)=O)cc3)CC2)ncn1 [Example 11.68]
350 | CC(=O)N[C@@H](C)c1ccc(C2CCN(c3ccnc(Oc4cccc(F)c4)n3)CC2)cc1 [Example 11.28]
340 | CC(=O)N[C@@H](C)c1ccc(C2CCN(c3nccc(I)c3C)CC2)cc1 [Example 5.39]
300 | CCOc1ccc(N2CCC(c3ccc([C@H](C)NC(=O)CC)cc3)CC2)c(C#N)c1 [Example 1.154]
300 | CC(=O)N[C@@H](C)c1ccc(C2CCN(c3cc(OCCC(C)(C)C)ncn3)CC2)cc1 [Example 11.12]
280 | COC(=O)N[C@@H](C)c1ccc(C2CCN(c3ccc(OCC(C)C)cn3)CC2)cc1 [Example 1.134]
230 | CCC(C)Oc1cccc(N2CCC(c3ccc([C@H](C)NC(C)=O)cc3)CC2)c1 (stereo partly drawn) [Example 1.90]
150 | CC(=O)N[C@@H](C)c1ccc(C2CCN(c3ccnc(OCC4CC4(F)F)c3)CC2)cc1 (stereo partly drawn) [Example 19.26]
110 | CC(=O)N[C@@H](C)c1ccc(C2CCN(c3ccc(OC4CCC4)c(F)c3)CC2)cc1 [Example 8.13]
100 | CC(=O)N[C@@H](C)c1ccc(C2CCN(c3ncc4nc(-c5ccncc5)oc4n3)CC2)cc1 [Example 5.10]
90 | CCCOc1ccc(N2CCC(c3ccc([C@H](C)NC(C)=O)cc3)CC2)c(C)c1 [Example 1.32]
90 | CCCOc1ccc(N2CCC(c3ccc([C@H](C)NC(C)=O)cc3)CC2)c(C#N)n1 [Example 1.181]
50 | CC(=O)N[C@@H](C)c1ccc(C2CCN(c3ccc(OCCC4CC4)cc3F)CC2)cc1 [Example 1.101]
